Data as given in the NIST ThermoML archive (doi:10.1016/j.fluid.2017.10.027).
Numbers after ± are expanded uncertainties.

Details: Liquid; for mass density: Vibrating tube method; for speed of sound: Sing-around technique in a fixed-path interferometer

CCCOCCO [2-propoxyethanol]
Details	mass density, 100 kPa [kg/m3]	mass density, 101.33 kPa [kg/m3]	mass density, 2500 kPa [kg/m3]	mass density, 5000 kPa [kg/m3]	mass density, 10000 kPa [kg/m3]	mass density, 15000 kPa [kg/m3]	mass density, 20000 kPa [kg/m3]	mass density, 25000 kPa [kg/m3]	mass density, 30000 kPa [kg/m3]	speed of sound, 101.33 kPa [m/s]
293.15 K	911 ± 2	–	913 ± 2	915 ± 2	918 ± 2	922 ± 2	925 ± 2	928 ± 2	931 ± 2	–
298.15 K	–	907.23 ± 0.15	–	–	–	–	–	–	–	1298.8 ± 3.1
303.15 K	903 ± 2	–	904 ± 2	906 ± 2	910 ± 2	913 ± 2	917 ± 2	920 ± 2	923 ± 2	–
313.15 K	894 ± 2	–	896 ± 2	898 ± 2	901 ± 2	905 ± 2	908 ± 2	912 ± 2	915 ± 2	–
323.15 K	885 ± 2	–	887 ± 2	889 ± 2	893 ± 2	897 ± 2	900 ± 2	904 ± 2	907 ± 2	–
333.15 K	876 ± 2	–	878 ± 2	880 ± 2	884 ± 2	888 ± 2	892 ± 2	895 ± 2	899 ± 2	–
343.15 K	867 ± 2	–	869 ± 2	871 ± 2	875 ± 2	879 ± 2	883 ± 2	887 ± 2	891 ± 2	–
353.15 K	857 ± 2	–	860 ± 2	862 ± 2	866 ± 2	871 ± 2	875 ± 2	879 ± 2	882 ± 2	–
363.15 K	848 ± 2	–	850 ± 2	853 ± 2	857 ± 2	862 ± 2	866 ± 2	870 ± 2	874 ± 2	–
373.15 K	838 ± 2	–	840 ± 2	843 ± 2	848 ± 2	853 ± 2	858 ± 2	862 ± 2	866 ± 2	–
383.15 K	828 ± 2	–	830 ± 2	833 ± 2	839 ± 2	844 ± 2	849 ± 2	853 ± 2	858 ± 2	–
393.15 K	817 ± 2	–	820 ± 2	823 ± 2	829 ± 2	835 ± 2	840 ± 2	845 ± 2	849 ± 2	–
403.15 K	806 ± 2	–	810 ± 2	813 ± 2	819 ± 2	825 ± 2	831 ± 2	836 ± 2	841 ± 2	–
413.15 K	795 ± 2	–	799 ± 2	803 ± 2	810 ± 2	816 ± 2	822 ± 2	827 ± 2	832 ± 2	–

CCOCCO [2-ethoxyethan-1-ol]
Details	mass density, 100 kPa [kg/m3]	mass density, 101.33 kPa [kg/m3]	mass density, 2500 kPa [kg/m3]	mass density, 5000 kPa [kg/m3]	mass density, 10000 kPa [kg/m3]	mass density, 15000 kPa [kg/m3]	mass density, 20000 kPa [kg/m3]	mass density, 25000 kPa [kg/m3]	mass density, 30000 kPa [kg/m3]	speed of sound, 101.33 kPa [m/s]
293.15 K	931 ± 2	–	933 ± 2	934 ± 2	938 ± 2	941 ± 2	944 ± 2	947 ± 2	950 ± 2	–
298.15 K	–	925.64 ± 0.23	–	–	–	–	–	–	–	1305.7 ± 3.2
303.15 K	922 ± 2	–	924 ± 2	925 ± 2	929 ± 2	932 ± 2	936 ± 2	939 ± 2	942 ± 2	–
313.15 K	913 ± 2	–	914 ± 2	916 ± 2	920 ± 2	924 ± 2	927 ± 2	930 ± 2	933 ± 2	–
323.15 K	903 ± 2	–	905 ± 2	907 ± 2	911 ± 2	915 ± 2	918 ± 2	922 ± 2	925 ± 2	–
333.15 K	894 ± 2	–	896 ± 2	898 ± 2	902 ± 2	906 ± 2	910 ± 2	913 ± 2	917 ± 2	–
343.15 K	884 ± 2	–	886 ± 2	889 ± 2	893 ± 2	897 ± 2	901 ± 2	905 ± 2	908 ± 2	–
353.15 K	874 ± 2	–	877 ± 2	879 ± 2	884 ± 2	888 ± 2	892 ± 2	896 ± 2	900 ± 2	–
363.15 K	864 ± 2	–	867 ± 2	869 ± 2	874 ± 2	879 ± 2	883 ± 2	887 ± 2	891 ± 2	–
373.15 K	854 ± 2	–	857 ± 2	859 ± 2	865 ± 2	869 ± 2	874 ± 2	878 ± 2	882 ± 2	–
383.15 K	843 ± 2	–	846 ± 2	849 ± 2	855 ± 2	860 ± 2	865 ± 2	869 ± 2	874 ± 2	–
393.15 K	832 ± 2	–	836 ± 2	839 ± 2	845 ± 2	850 ± 2	855 ± 2	860 ± 2	865 ± 2	–
